The values that follow come from patent publication US20260328779A1, “METHODS AND COMPOSITIONS FOR THE DIAGNOSIS AND TREATMENT OF IGA NEPHROPATHY” (Beth Israel Deaconess Medical Center, Inc., priority 2022, published 2026).

Assay [1] relates to anti-Tn IgM. In words: Inhibition of anti-Tn antibody binding to Tn glycopeptide array. The arrangement: species or system human. To be noted: glycomimetic 20 mM, 30 min at RT, anti-Tn antibodies C3. As to the method:
The Tn glycopeptide microarray was prepared as previously described^77. Briefly, the glycopeptides printed on the microarray is as listed (FIG. 2). Purified anti-Tn antibodies (diluted to […] for IgM, and […] for IgG and IgA detection) in TSM binding buffer (20 mM Tris-HCl, pH 7.4, 150 mM NaCl, 2 mM CaCl2), 2 mM MgCl2, with 1% BSA and 0.05% Tween-20) were added to the respective array slides for 1 h at RT. Alexa Fluor #488-labeled goat anti-human IgM or goat anti-human IgG, or FITC-labeled goat anti-human IgA antibody at 1:400 dilution in TSM binding buffer was used for detection of IgM, IgG, and IgA within purified anti-Tn antibodies. Slides were analyzed on a Genepix^# 4300A microarray scanner (Molecular Devices). Images were analyzed with quantitation software (GenePix® Pro Microarray Analysis Software Ver. 7, Molecular Devices). For inhibition assay, a purified Tn(+)IgA1 produced from CosmcKO Dakiki cells was utilized (See Generation of CosmcKO Dakiki cells using CRISPR-Cas9 system for generating the antibody) to inhibit anti-Tn antibodies binding to microarray and Tn(−)IgA1 produced from Dakiki cells as a […]. Purified anti-Tn antibodies (Cl, 10 mg/ml) in TSM binding buffer was preincubated with 1 mg of purified Tn(+)IgA1, or Tn(−)IgA1 for 30 min at RT. […] Heat map and correlation map of binding preferences were analyzed using GLAD (Glycan Array Dashboard).

Assay [2] has as its system primary human renal mesangial cells. Kind of assay: Inhibition of anti-Tn CICs-stimulated mesangial cell proliferation (Ki-67). The assay is classed as cell-based. To be noted: 30 min at RT. As to the method:
[…] of serum was mixed with […] of Tn(+)matrix beads or mock beads overnight at 4° C. (10 rpm). Supernatant was collected after pelleting the beads at 500×g for 30 sec at 4° C. After two rounds of such sequential anti-Tn CICs immunodepletion (serum-ID) and its control (serum-Mock), collected serum was filtered by syringe filter unit (Cat #SLHP033RS, Millipore Sigma) before use. Cells were cultured at ~90% confluency in 96-well plate, and starved in Mesangial cell media (Cat #4201) with 0.5% FBS (Cat #0010) and 0.05× mesangial cell growth supplement (MsCGS, Cat #4252) from ScienCell for 24 h at 37° C. prior to stimulation. Cells were stimulated with 5% serum-Mock, 5% serum-ID with or without exogenous anti-Tn CICs (50 ng/[…]/well, total) for 24 h at 37° C. incubator. Cells were fixed with 4% PFA with 0.05% Triton-X-100 in PBS for 20 min at 4° C. Fixed cells were blocked with 5% (vol/vol) goat serum in PBS for 1 h at 4° C., and incubated with anti-Ki-67 antibody (SP6, rabbit IgG, Cat #CRM325B, Biocare Medical, diluted to 1:50) in PBS for 1 h at 4° C. Cells were washed 3× with chilled PBS, and incubated with Alexa Fluor #488-goat anti-rabbit IgG (Cat #A27034, Thermo Fisher Scientific) at 1:400 in PBS for 1 h at 4° C. in the dark. Cells were washed 3× with chilled PBS, and stained with DAPI (diluted to 0.1 mM) in PBS for 10 min at RT, and analyzed using a microscope (AMG EVOS FL digital inverted microscope, Fisher Scientific, ×400 magnification). For inhibition assay, anti-Tn CICs was preincubated with 100 mM α-methylGalNAc, or α-methylGlcNAc in PBS for 30 min at RT. Serum from three healthy controls (C3, C6, and pooled C1-C10; Cmix) and three IgAN (P5, P10, and pooled P1-P10; Pmix) were used in this assay. […] of serum with IgAN (P1-P20) or healthy control (C1-C20) was analyzed on SDS-PAGE gel, and stained with Coomassie.

Entries after “also recorded” stand apart in the source; their conditions may differ.

As for `CO[C@H]1O[C@H](CO)[C@H](O)[C@H](O)[C@H]1NC(C)=O` [α-methylGalNAc], the “inhibition of anti-Tn antibody (IgM) binding to Tn glycopeptide array” value in assay [1] is given as “specifically inhibited binding of the anti-Tn IgM”. For the same compound, in assay [2] (anti-Tn CICs purified from IgAN patients pretreated with 100 mM compound), the “inhibition of proliferative activity of anti-Tn CICs from IgAN patients toward mesangial cells” value was “inhibits their proliferative activity toward mesangial cells; also recorded: failed to stimulate human renal mesangial cells”. Also, the “inhibition of proliferative activity of anti-Tn CICs from healthy control sera toward mesangial cells” value in assay [2] (anti-Tn CICs purified from healthy control pretreated with 100 mM compound) was “did not significantly inhibit mesangial cell proliferation”.
